Data: US20180273531A1, “PYRIMIDINE COMPOUND AND MEDICAL USE THEREOF” (Japan Tobacco Inc., priority 2004, published 2018)

System: colorectal cancer cell line HT-29 cells
Test: Growth inhibitory effect against cancer cell lines (3H-thymidine uptake), HT-29
Assay type: cell-based
Conditions: Homo sapiens, HT-29, inhibition of 3H-thymidine uptake; test substance 18 hrs, then 3H-thymidine 6 hrs; triplicate
Protocol: Renal cancer cell line ACHN cell or colorectal cancer cell line HT-29 cells were cultured in a 96 well plate at 1.0×10^4 cells/90 μL/well for 24 hrs, then a test substance dissolved in DMSO (dimethyl sulfoxide) was added. After 18 hrs, ^3H-thymidine (0.25 μCi/well) was added and the cells were cultured for 6 hrs. Using a cell harvester, the cells were recovered on a UniFilter-96 GF/B glass filter and the ^3H radioactivity uptaken by the cells was measured by TopCount (Packard). As a control, DMSO was used and the activity of the test substance was expressed in the concentration (IC50) necessary for inhibiting ^3H radioactivity uptaken by the cell to 50% of that of the control group. The measurements were made in triplicate.

Structure (SMILES)	IC50
COc1ccc(Nc2cc(=O)n(C)c3c2c(=O)n(C2CC2)c(=O)n3-c2ccccc2)cc1 [Example 1-129]	100 to 1000 nM
C=CCn1c(=O)c2c(Nc3ccc(N(C)C)cc3)cc(=O)n(C)c2n(-c2ccccc2)c1=O [Example 1-140]	100 to 1000 nM
COc1ccccc1-n1c(=O)n(C2CC2)c(=O)c2c(Nc3ccc(Br)cc3)cc(=O)n(C)c21 [Example 1-159]	100 to 1000 nM
CCn1c(=O)c2c(Nc3ccc(Br)cc3F)cc(=O)n(C)c2n(-c2ccccc2)c1=O [Example 1-164]	10 to 100 nM
Cn1c(=O)cc(Nc2ccc(Cl)cc2F)c2c(=O)n(C3CC3)c(=O)n(-c3ccccc3)c21 [Example 1-171]	10 to 100 nM
COc1cc(Br)ccc1Nc1cc(=O)n(C)c2c1c(=O)n(C1CC1)c(=O)n2-c1ccccc1 [Example 1-189]	100 to 1000 nM
COc1cccc(-n2c(=O)n(C3CC3)c(=O)c3c(Nc4ccc(Br)cc4)cc(=O)n(C)c32)c1 [Example 1-190]	100 to 1000 nM
Cn1c(=O)cc(Nc2ccc(Br)cc2F)c2c(=O)n(C3CC3)c(=O)n(-c3cccc(CCC(=O)O)c3)c21 [Example 1-201]	100 to 1000 nM
CN1CCN(c2cccc(-n3c(=O)n(C4CC4)c(=O)c4c(Nc5ccc(Br)cc5F)cc(=O)n(C)c43)c2)CC1 [Example 1-206]	100 to 1000 nM
COc1ccc(Nc2cc(=O)n(C)c3c2c(=O)n(C2CC2)c(=O)n3-c2ccccc2)c(Br)c1 [Example 1-211]	100 to 1000 nM
Cn1c(=O)cc(Nc2ccc(Br)cc2F)c2c(=O)n(C3CC3)c(=O)n(-c3cccc(N4CCCCC4=O)c3)c21 [Example 1-214]	10 to 100 nM
Cn1c(=O)cc(Nc2ccc(Br)cc2F)c2c(=O)n(C3CC3)c(=O)n(-c3cccc(N4CCCC4)c3)c21 [Example 1-215]	100 to 1000 nM
Cn1c(=O)cc(Nc2ccc(Br)cc2F)c2c(=O)n(C3CC3)c(=O)n(-c3cccc(N4CCCCC4)c3)c21 [Example 1-216]	100 to 1000 nM
CCN(C)c1ccc(Nc2cc(=O)n(C)c3c2c(=O)n(C2CC2)c(=O)n3-c2ccccc2)c(F)c1 [Example 1-217]	100 to 1000 nM
Cn1c(=O)cc(Nc2ccc(Br)cc2F)c2c(=O)n(C3CC3)c(=O)n(-c3ccc(S(C)(=O)=O)cc3)c21 [Example 1-225]	100 to 1000 nM
CN(C)CCCOc1cccc(-n2c(=O)n(C3CC3)c(=O)c3c(Nc4ccc(Br)cc4F)cc(=O)n(C)c32)c1 [Example 1-227]	10 to 100 nM
CC(C)c1ccc(Nc2cc(=O)n(C)c3c2c(=O)n(C2CC2)c(=O)n3-c2ccccc2)cc1 [Example 1-229]	100 to 1000 nM
CCc1ccc(Nc2cc(=O)n(C)c3c2c(=O)n(C2CC2)c(=O)n3-c2ccccc2)cc1 [Example 1-230]	100 to 1000 nM
Cn1c(=O)cc(Nc2ccc(Br)cc2F)c2c(=O)n(C3CC3)c(=O)n(-c3cccc(OCCN4CCCC4)c3)c21 [Example 1-233]	100 to 1000 nM
Cn1c(=O)cc(Nc2ccc(Br)cc2F)c2c(=O)n(C3CC3)c(=O)n(-c3cccc(OCCN4CCCCC4)c3)c21 [Example 1-234]	100 to 1000 nM
CCN(CC)CCOc1cccc(-n2c(=O)n(C3CC3)c(=O)c3c(Nc4ccc(Br)cc4F)cc(=O)n(C)c32)c1 [Example 1-235]	100 to 1000 nM
CN1CCN(CCCOc2cccc(-n3c(=O)n(C4CC4)c(=O)c4c(Nc5ccc(Br)cc5F)cc(=O)n(C)c43)c2)CC1 [Example 1-236]	100 to 1000 nM
CCn1c(=O)c2c(Nc3ccc(Br)cc3F)cc(=O)n(C)c2n(-c2cccnc2)c1=O [Example 1-244]	100 to 1000 nM
CN(C)CCCc1cccc(-n2c(=O)n(C3CC3)c(=O)c3c(Nc4ccc(Br)cc4F)cc(=O)n(C)c32)c1 [Example 1-252]	10 to 100 nM

Structure (SMILES)	IC50
Cn1c(=O)cc(Nc2ccc(Br)cc2F)c2c(=O)n(C3CC3)c(=O)n(-c3cccc(CCCN4CCCCC4)c3)c21 [Example 1-255]	100 to 1000 nM
CCCc1ccc(Nc2cc(=O)n(C)c3c2c(=O)n(C2CC2)c(=O)n3-c2ccccc2)c(F)c1 [Example 1-258]	100 to 1000 nM
Cn1c(=O)cc(Nc2ccc(C(F)(F)F)cc2)c2c(=O)n(C3CC3)c(=O)n(-c3ccccc3)c21 [Example 1-273]	100 to 1000 nM
CN(C)CC(=O)Nc1cccc(-n2c(=O)n(C3CC3)c(=O)c3c(Nc4ccc(Br)cc4F)cc(=O)n(C)c32)c1 [Example 1-277]	10 to 100 nM
Cn1c(=O)cc(Nc2ccc(Br)cc2F)c2c(=O)n(C3CC3)c(=O)n(-c3cccc(S(N)(=O)=O)c3)c21 [Example 1-288]	10 to 100 nM
CNC(=O)c1cccc(-n2c(=O)n(C3CC3)c(=O)c3c(Nc4ccc(Br)cc4F)cc(=O)n(C)c32)c1 [Example 1-292]	10 to 100 nM
Cn1c(=O)cc(Nc2ccc(Br)cc2F)c2c(=O)n(C3CC3)c(=O)n(-c3cccc(NC(=O)CCO)c3)c21 [Example 1-305]	10 to 100 nM
Cn1c(=O)cc(Nc2ccc(Br)cc2F)c2c(=O)n(C3CC3)c(=O)n(-c3cccc(NS(=O)(=O)CCN)c3)c21 [Example 1-313]	10 to 100 nM
CN(C)C(=O)Nc1cccc(-n2c(=O)n(C3CC3)c(=O)c3c(Nc4ccc(Br)cc4F)cc(=O)n(C)c32)c1 [Example 1-324]	10 to 100 nM
Cn1c(=O)cc(Nc2ccc(CC(F)F)cc2)c2c(=O)n(C3CC3)c(=O)n(-c3ccccc3)c21 [Example 1-326]	100 to 1000 nM
Cn1c(=O)cc(Nc2ccc(Br)cc2F)c2c(=O)n(C3CC3)c(=O)n(-c3cccc(NCCN)c3)c21 [Example 1-334]	100 to 1000 nM
CC(=O)Nc1ccc(-n2c(=O)n(C3CC3)c(=O)c3c(Nc4ccc(Br)cc4F)n(C)c(=O)c(C)c32)cc1 [Example 4-4]	100 to 1000 nM
CC(=O)Nc1cccc(-n2c(=O)n(C3CC3)c(=O)c3c(Nc4ccccc4F)n(C)c(=O)c(C)c32)c1 [Example 4-7]	100 to 1000 nM
CCCCC(=O)NCCC(=O)Nc1cccc(-n2c(=O)n(C3CC3)c(=O)c3c(Nc4ccccc4F)n(C)c(=O)c(C)c32)c1 [Example 4-13]	100 to 1000 nM
CC(=O)Nc1cccc(-n2c(=O)n(C3CC3)c(=O)c3c(Nc4ccc(C5CCCC5)cc4F)n(C)c(=O)c(C)c32)c1 [Example 4-57]	100 to 1000 nM
COc1ccc(-n2c(=O)n(C3CC3)c(=O)c3c(Nc4ccc(I)cc4F)n(C)c(=O)c(C)c32)cc1NC(C)=O [Example 4-63]	10 to 100 nM
CCc1ccc(Nc2c3c(=O)n(C4CC4)c(=O)n(-c4ccc(NC(C)=O)cc4)c3c(C)c(=O)n2C)c(F)c1 [Example 4-75]	10 to 100 nM
Cc1c(=O)n(C)c(Nc2ccc(Br)cc2)c2c(=O)n(CCO)c(=O)n(-c3ccccc3)c12 [Example 4-85]	100 to 1000 nM
CC(=O)N(c1cccc(-n2c(=O)n(C3CC3)c(=O)c3c(Nc4ccc(I)cc4F)n(C)c(=O)c(C)c32)c1)S(C)(=O)=O [Example 4-133]	100 to 1000 nM
CC(=O)Nc1cccc(-n2c(=O)n(CCCO)c(=O)c3c(Nc4ccc(I)cc4F)n(C)c(=O)c(C)c32)c1 [Example 4-135]	100 to 1000 nM
CC(=O)N(c1cccc(-n2c(=O)n(C3CC3)c(=O)c3c(Nc4ccc(I)cc4F)n(C)c(=O)c(C)c32)c1)S(=O)(=O)N(C)C [Example 4-138]	100 to 1000 nM
CC(=O)N(C(C)=O)c1cccc(-n2c(=O)n(C3CC3)c(=O)c3c(Nc4ccc(I)cc4F)n(C)c(=O)c(C)c32)c1 [Example 4-140]	100 to 1000 nM
Cc1c(=O)n(C)c(Nc2ccc(I)cc2F)c2c(=O)n(CCCO)c(=O)n(-c3cccc(NS(C)(=O)=O)c3)c12 [Example 4-145]	100 to 1000 nM
Cc1c(=O)n(C)c(Nc2ccc(I)cc2F)c2c(=O)n(CCCO)c(=O)n(-c3ccc4oc(=O)[nH]c4c3)c12 [Example 4-146]	100 to 1000 nM
